pIC50, pKi: −log10 of the molar value.
What was measured:
[1] = test system: polyamine transporter (PATr); assay: Polyamine transport (PAT) inhibition assay in MDA-MB-231 cells; type: cell-based, human; conditions: for Ki: parallel library products, purity estimated greater than 80%, read-out: Ki μM, Inhibition of the Polyamine Transporter in MDA-MB-231 Cell Line
Method: (§1) In a conventional radiometric assay, the cells are incubated under growth conditions with [5,8-^14C]spermine in serum-free medium for varying intervals. Cells are plated at a known density in 24 well plates in standard tissue culture medium and allowed to adhere and grow for 15–96 hours. Due to the low signal of the radiolabel in this assay, 96 or […] well microplates cannot be used in this assay, creating a major bottleneck for throughput. Cell numbers are determined, and the plate is placed in a temperature controlled system at 37° C. Aminoguanidine is added to the medium to a final concentration of 1 mM. […] The assay is initiated by the mixing of the inhibitor and radioligand. The cells are incubated for an interval of about 1–60 minutes depending on cell type. The assay is terminated by removing the medium and cooling the plates to 4° C. The cells are then washed with cold medium three times, dissolved in 0.1% sodium dodecylsulfate, and the radioactivity in solution is determined by scintillation counting.
Therefore, the growth assay and a kinetic transport assay have been used to validate transport inhibition. […]

cultured cells = assay: Fluorescent microscopic analysis of monodansylspermine uptake; type: cell-based
Method: Cells were plated in a sterile chambered slide and grown for 15–48 hours to assure adherence of cells to the slide. The medium was removed and replaced with fresh medium containing 1 μM MDS for a 10 minute incubation period at 37° C. The medium was then removed and the cells washed 3 times with phosphate buffered saline. Glycerol (50% v/v) in a volume of […] was added to the chamber, and the slide was removed and covered with a cover slip.
Using a fluorescence microscope with filters set for excitation at 340 nm and emission at 530 nm, the slide was observed under normal light and with fluorescence. Uptake of the dansylated spermine was observed microscopically and recorded on photograph.

[2] = test system: polyamine transporter (PATr); assay: Radiometric polyamine transport (PAT) assay in A172 cells; type: cell-based
Method: as §1, with “In a conventional radiometric assay, the cells are incubated under growth conditions with [5,8-^14C]spermine in serum-free medium for varying intervals.” left out

[3] = target: spermidine/spermine acetyltransferase (SSAT) (Homo sapiens, UniProt P21673); assay: Spermidine/spermine acetyltransferase (SSAT) enzyme assay; type: biochemical; conditions: varying concentrations; 1 mM spermidine, 1 mM 14C-Acetyl CoA, pH 7.8
Method: A study was conducted to determine whether the compositions of the present invention, designed as PAT inhibitors, had other activities on the PA system. Specifically, the ability of DACS to inhibit an enzyme involved in PA recycling was evaluated. The method used was as described in Casero, R. A. et al., Biochem. J270:615–620 (1990) hereby incorporated by reference in its entirety. This assay measures the incorporation of ^14C-labeled acetyl CoA into spermidine to form acetylspermidine. Varying concentrations of DACS were added to a reaction mixture containing HEPES buffer, pH 7.8, 1 mM spermidine, and 1 mM ^14C-Acetyl CoA. The product is isolated by binding to phosphocellulose filter paper and the extent of reaction is determined by scintillation counting.

[4] = test system: T-cell acute lymphoblastic leukemias (ALL), glioblastomas, prostate, and colon cell lines; assay: In vitro test in combination with ODC inhibitors against several human cancer cell lines; type: cell-based
Method: DACS was tested in vitro in combination with ODC inhibitors against several human cancer cell lines. These include T-cell acute lymphoblastic leukemias (ALL), glioblastomas, prostate, and colon cell lines.

[5] = test system: MDA-MB-231 human breast carcinoma cells; assay: Growth assay of MDA-MB-231 cells with and without ODC inhibitor (DFMO), 1 μM spermidine; type: cell-based; conditions: for R: ratio of the IC50 in the absence of DFMO over the IC50 in the presence of DFMO, MDA growth assay
From the text: The ratio, R is the IC50 for […] relative to the IC50 for the polyamine analogue combined with an ODC inhibitor. This value of R, indicates the relative level of “synergism” between the polyamine analogue and ODC inhibitor.

[6] = test system: polyamine transporter (PATr); assay: Polyamine transport (PAT) inhibition assay in MDA-MB-231 cells; type: cell-based, human
[7] = test system: murine L1210 leukemia cells; conditions: cited from earlier work
neoplastic vessels = conditions: one month of treatment, humans with cervical interepithelial neoplasia; cited from earlier work
cancer cells = conditions: cited from earlier work
[8] = MDA-MB-231 cell PATr, read-out: Ki for the PATr

spermidine/spermine acetyltransferase (SSAT), sequence (P21673 whole entry, species assumed): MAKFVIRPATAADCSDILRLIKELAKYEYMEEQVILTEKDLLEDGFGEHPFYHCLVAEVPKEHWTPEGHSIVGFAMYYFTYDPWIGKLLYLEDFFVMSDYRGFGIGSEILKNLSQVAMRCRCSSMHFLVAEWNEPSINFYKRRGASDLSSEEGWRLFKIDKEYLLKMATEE

NCCCNCCCCNCCCNS(=O)(=O)c1cccc2ccccc12
Ki [1]: 0.19 µM

NCCCCNS(=O)(=O)c1cccc2ccccc12
Ki [1]: > 30 µM

NCCCNCCCCNCCCNS(=O)(=O)c1ccc2ccccc2c1
Ki [1]: 0.15 µM

NCCCCNS(=O)(=O)c1ccc2ccccc2c1
Ki [1]: 5 µM

CC1(C)C2CCC1(CS(=O)(=O)NCCCNCCCCNCCCN)C(=O)C2 (stereo not shown)
Ki [1]: > 10 µM

CC1(C)C2CCC1(CS(=O)(=O)NCCCCN)C(=O)C2 (stereo not shown)
Ki [1]: > 30 µM

CN(C)c1cccc2c(S(=O)(=O)NCCCNCCCCNCCCN)cccc12 [Compound 3, N^1-dansylspermine]
pKi [1, 8]: 7.10
intracellular localization (cultured cells): localize specifically to the nucleoli and the nuclear membrane
uptake of the fluorescent probe into cells (cultured cells; 1 μM, 10 minute incubation at 37° C.): took up the labeled material
displacement of 3H-spermidine in the transport assay ([2]; A172 cells): competitively displace

CN(C)c1cccc2c(S(=O)(=O)NCCCCCC(=O)NCCCNCCCCNCCCN)cccc12 [Compound 4, N^1-[(N^6-dansyl)-6-aminocaproyl]spermine]
inhibition of SSAT enzymatic activity [3]: inhibited spermidine/spermine acetyltransferase (SSAT) in a dose-related manner
effectiveness against tumor cell lines in vitro [4]: effective against all these tumor cell lines in vitro
cell growth reduced ([5]; DACS plus ODC inhibitor in the presence of polyamines, by day 3): 69%
pIC50 ([5]; Homo sapiens, MDA-MB-231, with ODC inhibitor, 1.0 μM supplemented polyamines, read-out: IC50 for growth in combination with an ODC inhibitor): 6.22
concentration at which the compound alone becomes growth inhibitory ([5]; alone, without ODC inhibitor): 300 µM
prevention of rescue from ODC inhibition by natural polyamines ([5]; putrescine, spermidine, N1-acetylspermine and N1-acetylspermidine): prevents
R [5]: 400
pKi ([6]; putrescine uptake, read-out: Ki, putrescine uptake): 8.27
pKi ([6]; spermidine uptake, read-out: Ki, spermidine uptake): 8.10

NCCCNCCCCNCCCNC(=O)CCCCCNS(=O)(=O)c1ccc(CNC(=O)c2ccc(Cl)cc2)s1 [Compound 5, N^1-[(N^6–5-(4-chlorobenzamidomethyl)-thiophene-2-sulfonyl)-6-aminocaproyl]spermine]
R [5]: 210

NCCCNCCCCNCCCNC(=O)CCCCCNS(=O)(=O)c1ccc2oc3ccccc3c2c1 [Compound 6]
R [5]: 220

NCCCNCCCCNCCCNS(=O)(=O)c1ccc2ccc3cccc4ccc1c2c34 [Compound 15, N^1-(1-pyrenylsulfonyl)spermine]
pKi [1, 8]: 7.04

CN(C)CCCN1c2ccccc2CCc2ccccc21 [Compound 165, imipramine, reference compound]
inhibition of the PAT assay ([1]; MDA cell line): inhibited the PAT assay
pKi ([1]; MDA cells, read-out: Ki, non-competitive inhibitor of PAT): 6.30
inhibition of polyamine transport ([1]; cell line not stated at the place (Example XXII: A172 and MDA)): inhibited polyamine transport
inhibition of the PAT assay ([2]; A172 cell line): inhibited the PAT assay
pKi ([2]; A172 cells, read-out: Ki, non-competitive inhibitor of PAT): 7.39

NCCC[C@](N)(C(=O)O)C(F)F [DFMO, α-difluoromethylornithine]
survival ([7]; DFMO mice transplanted with PAT-deficient L1210 cells): > 60 days
time to death ([7]; mice with wild-type L1210 cells (intact PAT), treated with DFMO): 12 days
reduction in neoplastic vessel count (neoplastic vessels): 50%

NCCCCN(CCCN)CCCNC(=O)CCCc1ccc(N(CCCl)CCCl)cc1 [chlorambucil-spermidine conjugate]
fold increase in cytotoxicity compared to chlorambucil alone (cancer cells): ≤ 225 fold

Reference: US7160923B1, “Polyamine analogues as therapeutic and diagnostic agents” (MediQuest Therapeutics, Inc., priority 1997, dated 2007)
